Data on five molecules can be found in patent US11098266B2, “Organic compounds” (Givaudan SA, priority 2017, dated 2021).

For one test, the system named is yellow mealworm. Conditions: J. Agr. Food Chem. 20(1), 1972, 65-69; cited from earlier work.
Test [1] is described as follows: GC-odor threshold values (gas chromatograph with sniff port, panel of trained evaluators). The settings on record: for odour threshold value geometric mean: absolute amount delivered at the sniff port, 5 panelists, identical conditions. From the text: As used herein, “odor threshold value” means the lowest concentration of a volatile organic compound in air which can be detected by smell. Generally speaking, it can be said that a compound with a low odor threshold value is more powerful than a compound with a high odor threshold value and thus allows the use of very low concentration in a fragrance composition to achieve an olfactory effect.
According to standard procedures known to the person skilled in the art, threshold values for volatile perfumery compounds are determined on a gas chromatograph equipped with a sniff port by a panel of trained evaluators. The lowest concentration smelled by each panelist is recorded as the individual threshold value expressed in ng (absolute amount of compound delivered at the sniff port).
Under identical conditions the odour threshold value for the individual compounds was measured.

Where [2] appears, read: ratio of GC-odour threshold values.

For the molecule `CC(C)=CCCC(C)CCOC(=O)Oc1ccccc1` (stereo not drawn) [3,7-Dimethyloct-6-en-1-yl phenyl carbonate], the juvenile hormone activity entry in the test on yellow mealworm was “juvenile hormone activity”. Take `CC(=O)OCCC(C)CCC=C(C)C` (stereo not drawn) [Citronellyl Acetate, 3,7-dimethyloct-6-en-1-yl acetate]: the “odour threshold value geometric mean” value in test [1] was found to be 241 ng. For the molecule `CCOC(=O)OCCC(C)CCC=C(C)C` (stereo not drawn) [Ethyl Citronellyl Carbonate, 3,7-dimethyloct-6-en-1-yl ethyl carbonate], the “odour threshold value geometric mean” value in test [1] worked out at 158 ng. In addition, the juvenile hormone activity result in the test with yellow mealworm is listed as “juvenile hormone activity”. Turning to `COC(=O)OCCC(C)CCC=C(C)C` (racemic) [Example 1, 3,7-dimethyloct-6-en-1-yl methyl carbonate], the “odour threshold value geometric mean” value in test [1] was 16 ng. Further, in test [1] (setting [2]), the “odour threshold value, times lower compared to Citronellyl Acetate” value amounted to 15 times and the “odour threshold value, times lower compared to Ethyl Citronellyl Carbonate” value worked out at 10 times. Further, the juvenile hormone activity result in the test on yellow mealworm is on record as “juvenile hormone activity”. Take `CC(C)=CCCC(C)CCO` (stereo not drawn) [Citronellol, 3,7-dimethyloct-6-en-1-ol]: the “odour threshold value geometric mean” value in test [1] came out at 5.2 ng.
